What was measured:
JAK3 enzyme [1] = target: T1, JAK3 enzyme (Homo sapiens, UniProt P52333); experiment: JAK Caliper Enzyme Assay at 1 mM ATP; assay type: biochemical
T1 sequence (P52333 1-1124): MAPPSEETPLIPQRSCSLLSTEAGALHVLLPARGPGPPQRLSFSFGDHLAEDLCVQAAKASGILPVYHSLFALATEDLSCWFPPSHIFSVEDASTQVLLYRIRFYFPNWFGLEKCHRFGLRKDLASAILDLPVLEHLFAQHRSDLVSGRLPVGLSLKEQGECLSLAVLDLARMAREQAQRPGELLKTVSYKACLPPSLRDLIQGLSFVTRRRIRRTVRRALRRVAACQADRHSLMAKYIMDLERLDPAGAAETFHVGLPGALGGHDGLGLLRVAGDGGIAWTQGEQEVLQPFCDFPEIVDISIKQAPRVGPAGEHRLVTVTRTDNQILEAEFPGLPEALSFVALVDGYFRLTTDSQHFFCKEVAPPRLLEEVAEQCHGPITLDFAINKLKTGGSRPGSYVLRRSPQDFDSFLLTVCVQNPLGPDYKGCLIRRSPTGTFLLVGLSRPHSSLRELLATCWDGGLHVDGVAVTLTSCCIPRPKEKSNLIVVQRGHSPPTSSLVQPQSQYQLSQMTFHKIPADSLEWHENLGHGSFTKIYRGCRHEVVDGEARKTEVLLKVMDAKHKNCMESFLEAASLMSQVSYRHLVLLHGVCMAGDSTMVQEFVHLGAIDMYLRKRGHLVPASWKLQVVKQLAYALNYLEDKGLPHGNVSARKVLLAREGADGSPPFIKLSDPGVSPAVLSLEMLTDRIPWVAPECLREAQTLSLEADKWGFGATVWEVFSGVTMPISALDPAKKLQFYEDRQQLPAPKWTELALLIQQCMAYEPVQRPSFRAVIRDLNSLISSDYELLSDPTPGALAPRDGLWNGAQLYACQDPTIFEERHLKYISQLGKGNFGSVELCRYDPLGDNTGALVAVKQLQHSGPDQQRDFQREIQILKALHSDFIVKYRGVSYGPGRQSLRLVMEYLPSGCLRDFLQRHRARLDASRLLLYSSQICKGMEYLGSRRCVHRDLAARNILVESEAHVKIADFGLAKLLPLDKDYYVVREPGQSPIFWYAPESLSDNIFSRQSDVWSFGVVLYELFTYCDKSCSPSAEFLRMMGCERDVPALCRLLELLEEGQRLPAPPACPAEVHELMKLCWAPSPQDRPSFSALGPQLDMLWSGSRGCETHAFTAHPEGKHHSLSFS
Procedure, shortened: (§1)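 Peptide phosphorylation by the kinase, adjusted to 20%-30% conversion, is measured by microfluidic separation of substrate and product on a Caliper LC3000. Compounds run as 11-point half-log series from a 600 μM DMSO top concentration.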

JAK3 enzyme [2] = target: T1, JAK3 enzyme; experiment: JAK Caliper Enzyme Assay at 4 μM ATP; assay type: biochemical
Procedure, shortened: as §1

[3] = tested on: IL-15 induced P-STAT5 in human PBMC; experiment: PBMC IL-15 Induced P-STAT5; assay type: cell-based; settings: human PBMC, IL-15 final 41 ng/mL; read-out: PBMC IL15_pSTAT5_IC50
Description: PBMC IL-15 Induced P-STAT5
Test compounds were serially diluted in DMSO, with further dilution of the compounds in RPMI 1640 medium (Invitrogen #72400) supplemented with 10 mM HEPES, pH 7.4, 1 mM sodium pyruvate, and Penicillin/Streptomycin (by adding 5 μL compound/DMSO in 120 μL Dulbecco's Phosphate-Buffered Saline (D-PBS, 1×), [DMSO]=4%, and mixing the solution by repeated pipetting, 6×). IL-15 was diluted to the concentration at 820 ng/mL in RPMI 1640 medium.
Frozen human PBMC (200-250 million cells/vial) was thawed at 37° C. The cells were transferred to 10 mL warm medium in a 50-mL conical tube, and centrifuged at 1,200 RPM at room temperature for 5 min. The supernatant was aspirated. Cells were suspended in 3 mL warm human plasma and incubated at 37° C. in a tissue culture incubator for 1.5 to 2 h. After adding 47 ml D-PBS (37° C.) to PBMC/FBS suspension, centrifuging at 1,200 RPM at room temperature for 5 min, and aspirating the supernatant, the cells were resuspended in 20 mL warm RPMI medium. Ninety μL of cell suspension were pipetted per well in a 96-well, deep-well, V-bottom plate, and the plate was incubated at 37° C. for 30 min. Five μL of compound were transferred to each well (final 0.2% DMSO), vortex gently and incubate at 37° C. for 15 min; 5 μL 4% DMSO/PBS were added to the control wells. After adding 5 μL 820 ng/mL of human IL-15 (final 41 ng/mL) to each well (5 μL PBS to the control wells), vortexing gently and incubating at 37° C. for 15 min, followed by 0.3 mL 1% paraformaldehyde/PBS (37° C.) to each well, and incubating the plate at room temperature for 15 min, the plates were centrifuged at 1,200 RPM (Beckman GS-6R or Sorvall Legend) at room temperature for 5 min, and the supernatant was aspirated using a 8-channel or 12-channel manifold. After adding 0.8 mL staining buffer per well, the plates were centrifuged at 1,200 RPM (Beckman GS-6R or Sorvall Legend) at room temperature for 5 min, and again the supernatant was aspirated using a 8-channel or 12-channel manifold. The plate was vortexed, and 0.35 mL 90% methanol/10% H2O (−20° C.) was added per well, and the plate incubated on ice for 20 min. After again adding 0.8 mL staining buffer per well, the plates were centrifuged at 1,200 RPM (Beckman GS-6R or Sorvall Legend) at room temperature for 5 min, and again the supernatant was aspirated using a 8-channel or 12-channel manifold, and then 0.8 mL Staining buffer was added per well. After once again adding 0.8 mL staining buffer per well, the plates were centrifuged at 1,200 RPM (Beckman GS-6R or Sorvall Legend) at room temperature for 5 min, and again the supernatant was aspirated using a 8-channel or 12-channel manifold. Then the plate was vortexed, and 250 μL/well of Alexa Fluor® 647 conjugated anti-STAT5 antibody ([…]; […]) was added, and the plate was incubated at 4° C. overnight in the dark. Samples of 250 μL/well were transferred to a 96-well U-bottom plate, and the FACS analysis was performed gating on total lymphocytes. Samples were analyzed using a BD Calibur™ or BD FACSCanto™ flow cytometer equipped with the BD High Throughput Sampler.

Compound | IC50 (JAK3 enzyme [1]) [nM] | IC50 (JAK3 enzyme [2]) [nM] | IC50 [3] [nM]
C=CC(=O)N1CCN(c2cnc3[nH]cc(C(=O)NCC4(O)CCC(F)(F)CC4)c3n2)C[C@@H]1CC(C)C [Example 302, 2-[(3S)-4-acryloyl-3-(2-methylpropyl)piperazin-1-yl]-N-[(4,4-difluoro-1-hydroxycyclohexyl)methyl]-5H-pyrrolo[2,3-b]pyrazine-7-carboxamide] | 385 | 2.89 | 1190
C=CC(=O)N1CC[C@@H](Nc2cnc3[nH]cc(C(=O)NCC)c3n2)[C@H](OC)C1 (racemic) [Example 25, Trans-racemic-2-{[1-acryloyl-3-methoxypiperidin-4-yl]amino}-N-ethyl-5H-pyrrolo[2,3-b]pyrazine-7-carboxamide] | 92 | 1.33 | 1600
C=CC(=O)N1C[C@@H](CO)C[C@@H](Nc2ncnc3[nH]ccc23)C1 (racemic) [Example 97, racemic-1-((3R,5S)-3-((7H-pyrrolo[2,3-d]pyrimidin-4-yl)amino)-5-(hydroxymethyl)piperidin-1-yl)prop-2-en-1-one] | 187 | 1.71 | 1060
C=CC(=O)N1CCC(Nc2cnc3[nH]cc(C(=O)NCc4ccc(CC)c(C)n4)c3n2)CC1 [Example 184, 2-[(1-acryloylpiperidin-4-yl)amino]-N-[(5-ethyl-6-methylpyridin-2-yl)methyl]-5H-pyrrolo[2,3-b]pyrazine-7-carboxamide] | 68 | 1.39 | 1190
C=CC(=O)N1CCC(Oc2cnc3[nH]cc(C(=O)NCC4(O)CCCC(F)(F)C4)c3n2)CC1 (racemic) [Example 223, Racemic-2-[(1-acryloylpiperidin-4-yl)oxy]-N-[(3,3-difluoro-1-hydroxycyclohexyl)methyl]-5H-pyrrolo[2,3-b]pyrazine-7-carboxamide] | 344 | 4.13 | 3330
C=CC(=O)N1CCN(c2cnc3[nH]cc(C(=O)NCC)c3n2)CC1(C)C [Example 307, 2-(4-acryloyl-3,3-dimethylpiperazin-1-yl)-N-ethyl-5H-pyrrolo[2,3-b]pyrazine-7-carboxamide] | 1080 | 9.82 | 2130
C=CC(=O)N1CC[C@H](Nc2cnc3[nH]cc(C(=O)NCC)c3n2)C[C@@H]1C (racemic) [Example 349, 2-(((2S,4S)-1-acryloyl-2-methylpiperidin-4-yl)amino)-N-ethyl-5H-pyrrolo[2,3-b]pyrazine-7-carboxamide] | 367 | 2.12 | 2930
C=CC(=O)N(C)C1CN(c2cnc3[nH]cc(C(=O)NCC)c3n2)C1 [Example 59, 2-{3-[acryloyl(methyl)amino]azetidin-1-yl}-N-ethyl-5H-pyrrolo[2,3-b]pyrazine-7-carboxamide] | 1200 | 6.26 | 4870
C=CC(=O)N1CCN(c2cnc3[nH]cc(C(=O)NC(COC)COC)c3n2)CC1(C)C (racemic) [Example 140, Racemic-2-(4-acryloyl-3,3-dimethylpiperazin-1-yl)-N-(1,3-dimethoxypropan-2-yl)-5H-pyrrolo[2,3-b]pyrazine-7-carboxamide] | 384 | 2.71 | 1710
C=CC(=O)N1CCN(c2cnc3[nH]cc(C(=O)NC4CC(F)(F)C4)c3n2)C[C@@H]1CC(C)C [Example 273, 2-[(3S)-4-acryloyl-3-(2-methylpropyl)piperazin-1-yl]-N-(3,3-difluorocyclobutyl)-5H-pyrrolo[2,3-b]pyrazine-7-carboxamide] | 204 | 1.59 | 389
C=CC(=O)N1CCC(Oc2cnc3[nH]cc([C@@H](C)O)c3n2)CC1 (single isomer, unassigned) [Example 119] | 3930 | 34.2 | 9310
C=CC(=O)N1CCN(c2cnc3[nH]cc(C(=O)N[C@@H](C)C(=O)OC)c3n2)CC1(C)C [Example 158, Methyl N-{[2-(4-acryloyl-3,3-dimethylpiperazin-1-yl)-5H-pyrrolo[2,3-b]pyrazin-7-yl]carbonyl}-L-alaninate] | 365 | 3.07 | 888
C=CC(=O)N1CCC(C)(Nc2cnc3[nH]cc(C(=O)NCC(C)CC(F)(F)F)c3n2)CC1 (racemic) [Example 270, Racemic-2-[(1-acryloyl-4-methylpiperidin-4-yl)amino]-N-(4,4,4-trifluoro-2-methylbutyl)-5H-pyrrolo[2,3-b]pyrazine-7-carboxamide] | 63 | 0.526 | 670
C=CC(=O)N1CC[C@@H](Nc2cnc3[nH]cc(C(=O)NCC4CC(F)(F)C4)c3n2)[C@@H](OC)C1 [Example 309, 2-{[(3S,4R)-1-acryloyl-3-methoxypiperidin-4-yl]amino}-N-[(3,3-difluorocyclobutyl)methyl]-5H-pyrrolo[2,3-b]pyrazine-7-carboxamide] | 59 | 0.898 | 526
C=CC(=O)N1CCN(c2cnc3[nH]cc(C(=O)NCCOC)c3n2)CC1(C)C [Example 265, 2-(4-acryloyl-3,3-dimethylpiperazin-1-yl)-N-(2-methoxyethyl)-5H-pyrrolo[2,3-b]pyrazine-7-carboxamide] | 742 | 4.63 | 2060
C=CC(=O)N1CCC(Nc2cnc3[nH]cc(C(=O)NCC(C)CC(F)(F)F)c3n2)CC1C (racemic) [Example 310, Racemic-2-[(1-acryloyl-2-methylpiperidin-4-yl)amino]-N-(4,4,4-trifluoro-2-methylbutyl)-5H-pyrrolo[2,3-b]pyrazine-7-carboxamide] | 170 | 2.08 | 1200

Reference: patent US10703756B2, “Pyrrolo[2,3-D]pyrimidinyl, pyrrolo[2,3-B]pyrazinyl, pyrrolo[2,3-B]pyridinyl acrylamides and epoxides thereof” (Pfizer Inc., priority 2015, dated 2020)
